Data: patent US20060115865A1, “Lamotrigine analogs” (priority 2004, published 2006)
Like-named read-outs stand apart in the source and are kept apart here.

Tests used:
[1] = Solubility of 74W86 in common solvents; assay type: physicochemical; details: most common solvents
[2] = tested on: anti-lamotrigine antibody; test: Cross-reactivity of polyclonal antibody with lamotrigine metabolites spiked into human serum; assay type: binding; details: metabolite at 500 μg/mL spiked into human serum; polyclonal antisera
Experimental: A polyclonal antisera is obtained and an assay is performed in order to determine the amount of cross-reactivity of the polyclonal antibody with lamotrigine and lamotrigine metabolites. A known amount of lamotrigine is used to react with an anti-lamotrigine antibody prepared in accordance with the present invention. The known concentration of lamotrigine is used to calculate the amount of cross-reactivity between the antibody preparation and the metabolites as follows: N-methyl (29); N-oxide (30); and N-2 gluronide (31). The percent of cross-reactivity equals 100 times the observed concentration of lamotrigine in μg/mL, which is then divided by the concentration of added metabolites in μg/mL. No cross-reactivity is observed in specimens containing those metabolites. High concentrations of these compounds are spiked into human serum and tested as samples. The metabolites are assayed and compared to control serum (no lamotrigine). Cross reactivity is calculated using the following equation: [formula]

[3] = cited from earlier work
[4] = responders (>50% seizure reduction)

In the case of `Nc1nnc(-c2cccc(Cl)c2Cl)c(NC(=O)CCC(=O)O)n1` [74W86], the solubility [1] is reported as “poor solubility in most common solvents”.

For `C[n+]1nc(-c2cccc(Cl)c2Cl)c(N)nc1N` [N-2 methyl], the cross-reactivity [2] was “do not have any cross-reactivity”.

With `Nc1nc(N)[n+]([O-])nc1-c1cccc(Cl)c1Cl` [N-2 oxide] the cross-reactivity [2] was less than 3%.

In the case of `Nc1nnc(-c2cccc(Cl)c2Cl)c(N)n1` [lamotrigine, 3,5-diamino-6-(2,3-dichlorophenyl)-1,2,4-triazine], the “lamotrigine concentration, range” value ([3]; patients with side effects) is listed as 31 to 60 µmol/L, the median lamotrigine concentration ([3]; patients with side effects) is listed as 62 µmol/L and the “lamotrigine concentration, range” value [3, 4] is listed as 8 to 60 µmol/L. The median lamotrigine concentration [3, 4] was 31 µmol/L.
